# From patent US8299074B2, “P38 MAP kinase inhibitors” (RespiVert Ltd., priority 2008, dated 2012)
# Where two headings read alike, the source gives them in different places.
# Columns and labels:
# [1] = tested on: THP-1 cells; assay: LPS-induced TNF alpha release in THP-1 cells; assay type: cell-based; conditions: Homo sapiens
# Method: LPS-Induced TNF Alpha Release in THP-1 Cells: Potency […] Coli; O111:B4, Sigma) for 4 hr and the supernatant collected for determination of TNFα concentration by sandwich ELISA (Duo-set, R&D systems). The inhibition of TNFα production was calculated at each concentration by comparison with vehicle control.
# [2] = tested on: U937 cells; assay: LPS-induced IL-8 release in U937 cells; assay type: cell-based; conditions: Homo sapiens, read-out: DU937 (LPS) IL-8 IC50
# Method: (§1) LPS-Induced TNF Alpha/IL-8 Release in U937 Cells: Potency U937 cells, human monocytic cell line, were differentiated to macrophage-type cells by incubation with phorbol myristate acetate (PMA; 100 ng/ml) for 48 to 72 hours. Cells were pre-incubated with final concentrations of compound for 2 hrs. […] Coli: O111:B4, Sigma) for 4 hrs, and the supernatant collected for determination of TNFα and IL-8 concentration by sandwich ELISA (Duo-set, R&D systems). […] The inhibition of IL-8 production was calculated at each concentration of test compound by comparison with vehicle control.
# [3] = tested on: Differentiated U937 cells; assay: MTT assay (cell viability); assay type: cell-based, human; conditions: Table 2
# Method: MTT Assay Differentiated U937 cells were pre-incubated with compound for 4 hrs in 5% FCS or 10% FCS for 24 hrs. […] After 1 hr incubation, the media were removed, 200 ul of DMSO added to each well and the plates were shaken lightly for 1 h prior to reading the absorbance at 550 nm. The percentage loss of cell viability was calculated for each well relative to vehicle (0.5% DMSO)-treatment. Consequently an apparent increase in cell viability for drug treatment relative to vehicle is tabulated as a negative percentage.
# [4] = target: T1, p38 MAPK alpha (MAPK14) (Homo sapiens, UniProt Q16539); assay: Enzyme inhibition assay, p38 MAPK alpha (FRET, Z-LYTE, via MAPKAP-K2); assay type: biochemical; conditions: Table 2; read-out: Enzyme p38α IC50
# T1 construct: purchased Invitrogen
# T1 sequence (Q16539 whole entry): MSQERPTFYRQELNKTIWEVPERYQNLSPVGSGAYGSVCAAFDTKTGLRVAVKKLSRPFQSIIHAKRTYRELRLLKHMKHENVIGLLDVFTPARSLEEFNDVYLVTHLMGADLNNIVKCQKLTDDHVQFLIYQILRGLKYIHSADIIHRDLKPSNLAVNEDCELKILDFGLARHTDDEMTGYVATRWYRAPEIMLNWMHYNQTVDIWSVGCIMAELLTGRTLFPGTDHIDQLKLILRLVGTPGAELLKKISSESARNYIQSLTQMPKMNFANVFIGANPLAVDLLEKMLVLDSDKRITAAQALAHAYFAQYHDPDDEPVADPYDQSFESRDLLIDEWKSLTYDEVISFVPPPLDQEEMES
# [5] = tested on: U937 cells; assay: LPS-induced TNF alpha release in U937 cells; assay type: cell-based
# Method: as §1
# [6] = tested on: BEAS2B cells; assay: Poly I:C-induced ICAM-1 induction in BEAS2B cells; assay type: cell-based; conditions: Homo sapiens, BEAS-2B, read-out: BEAS2B (polyIC) ICAM1 IC50
# Method: Poly I:C-Induced ICAM-1 Induction in BEAS2B Cells: Potency Poly I:C (1 ug/ml) (Invivogen Ltd., San Diego, Calif.) was transfected into BEAS2B cells (human bronchial epithelial cells, ATCC) with Oligofectamine (Invitrogen, Carlsbad, Calif.). Cells were pre-incubated with final concentrations of compound for 2 hrs. The level of ICAM1 expression on the cell surface was determined by cell-based ELISA. Briefly, at 18 hrs after poly I:C transfection, cells were fixed with 4% formaldehyde in PBS. After quenching endogenous peroxidase by adding 0.1% sodium azide and 1% hydrogen peroxide, cells were washed with wash-buffer (0.1% Tween in PBS: PBS-Tween). After blocking the wells with 5% milk in PBS-Tween for 1 hr, the cells were incubated with anti-human ICAM-1 antibody (Cell Signaling Technology, Danvers, Mass.) in 1% BSA PBS overnight at 4° C. Cells were washed with PBS-Tween and incubated with the secondary antibody (HRP-conjugated anti-rabbit IgG, Dako Ltd., Glostrup, Denmark). The ICAM-1 signal was detected by adding substrate and reading at 450 nm with a reference wavelength of 655 nm using a spectrophotometer. […] The measured OD 450-655 readings were corrected for cell number by dividing with the OD595 reading in each well.
# [7] = THP-1, Table 2, read-out: THP-1 (LPS) TNFα IC50
# [8] = loss of cell viability at 1 μg/ml
# [9] = Homo sapiens; read-out: DU937 (LPS) TNFα REC50
# [10] = loss of cell viability, test conducted at 10 μg/ml
SMILES,"IC50 [1, 7] [nM]",IC50 ([2]; Table 2) [nM],"DU937 (cell viability) MTT assay 4 h [3, 8]","DU937 (cell viability) MTT assay 24 h [3, 8]",IC50 [4] [nM],"EC50 [5, 9] [nM]",IC50 ([6]; Table 2) [nM],"DU937 (cell viability) MTT assay 4 h [3, 10]","DU937 (cell viability) MTT assay 24 h [3, 10]","IC50 ([1]; THP-1, read-out: THP-1 (LPS) TNFα IC50) [nM]",IC50 [2] [nM],"EC50 ([5]; Homo sapiens, read-out: DU937 (LPS) TNFα REC50) [nM]",IC50 [6] [nM]
"COCC(=O)Nc1cc(Oc2ccc(NC(=O)Nc3cc(C(C)C)nn3-c3ccc(C)cc3)c3ccccc23)ccn1 [Example 6, N-(4-(4-(3-(3-Isopropyl-1-p-tolyl-1H-pyrazol-5-yl)ureido)naphthalen-1-yloxy)pyridin-2-yl)-2-methoxyacetamide]",< 10,< 5000,− (<=30%),− (<=30%),< 10,< 10,< 5000,–,–,–,–,–,–
"CCc1cc(NC(=O)Nc2ccc(Oc3ccnc(NC(=O)COC)c3)c3ccccc23)n(-c2ccc(C)cc2)n1 [Example 7, N-(4-(4-(3-(3-Ethyl-1-p-tolyl-1H-pyrazol-5-yl)ureido)naphthalen-1-yloxy)pyridin-2-yl)-2-methoxyacetamide]",< 10,< 10,− (<=30%),− (<=30%),< 10,< 10,< 5000,–,–,–,–,–,–
"COCC(=O)Nc1cc(Oc2ccc(NC(=O)Nc3cc(C(C)(C)CO)nn3-c3ccc(C)cc3)c3ccccc23)ccn1 [Example 9, N-(4-(4-(3-(3-(1-Hydroxy-2-methylpropan-2-yl)-1-p-tolyl-1H-pyrazol-5-yl)ureido)naphthalen-1-yloxy)pyridin-2-yl)-2-methoxyacetamide]",< 10,< 10,− (<=30%),− (<=30%),< 10,< 10,< 5000,–,–,–,–,–,–
"Cc1ccc(-n2nc(C(C)(C)C)cc2NC(=O)Nc2ccc(Oc3ccnc(NC(=O)CN4CCOCC4)c3)c3ccccc23)cc1 [Example 11, N-(4-(4-(3-(3-tert-Butyl-1-p-tolyl-1H-pyrazol-5-yl)ureido)naphthalen-1-yloxy)pyridin-2-yl)-2-morpholinoacetamide]",< 10,< 10,–,–,< 10,< 10,< 5000,−^$ (<=30%),+^$ (>30%),–,–,–,–
"Cc1ccc(-n2nc(C(C)(C)C)cc2NC(=O)Nc2ccc(Oc3ccnc(NC(=O)CN(C)C)c3)c3ccccc23)cc1 [Example 12, N-(4-(4-(3-(3-tert-Butyl-1-p-tolyl-1H-pyrazol-5-yl)ureido)naphthalen-1-yloxy)pyridin-2-yl)-(dimethylamino)acetamide]",< 10,< 10,–,–,< 10,< 10,< 5000,−^$ (<=30%),+^$ (>30%),–,–,–,–
"COCCNCC(=O)Nc1cc(Oc2ccc(NC(=O)Nc3cc(C(C)(C)C)nn3-c3ccc(C)cc3)c3ccccc23)ccn1 [Example 13, N-(4-(4-(3-(3-tert-Butyl-1-p-tolyl-1H-pyrazol-5-yl)ureido)naphthalen-1-yloxy)pyridin-2-yl)-2-(2-methoxyethylamino)acetamide]",< 10,< 10,–,–,< 10,< 10,< 10,−^$ (<=30%),+^$ (>30%),–,–,–,–
"Cc1ccc(-n2nc(C(C)(C)C)cc2NC(=O)Nc2ccc(Oc3ccnc(NC(=O)CNC(N)=O)c3)c3ccccc23)cc1 [Example 14, N-(4-(4-(3-(3-tert-Butyl-1-p-tolyl-1H-pyrazol-5-yl)ureido)naphthalen-1-yloxy)pyridin-2-yl)-2-ureidoacetamide]",< 5000,< 5000,− (<=30%),− (<=30%),< 10,< 5000,< 5000,–,–,–,–,–,–
"COCC(=O)NCC(=O)Nc1cc(Oc2ccc(NC(=O)Nc3cc(C(C)(C)C)nn3-c3ccc(C)cc3)c3ccccc23)ccn1 [Example 15, N-(4-(4-(3-(3-tert-Butyl-1-p-tolyl-1H-pyrazol-5-yl)ureido)naphthalen-1-yloxy)pyridin-2-yl)-2-(2-methoxyacetamido)acetamide]",< 10,< 10,− (<=30%),+ (>30%),< 10,< 10,< 10,–,–,–,–,–,–
"Cc1ccc(-n2nc(C(C)(C)C)cc2NC(=O)Nc2ccc(Oc3ccnc(NC(=O)CNC(=O)C4CCOCC4)c3)c3ccccc23)cc1 [Example 16, N-(2-(4-(4-(3-(3-tert-Butyl-1-p-tolyl-1H-pyrazol-5-yl)ureido)naphthalen-1-yloxy)pyridin-2-ylamino)-2-oxoethyl)tetrahydro-2H-pyran-4-carboxamide]",< 10,< 10,− (<=30%),+ (>30%),< 10,< 10,< 10,–,–,–,–,–,–
"Cc1ccc(-n2nc(C(C)(C)C)cc2NC(=O)Nc2ccc(Oc3ccnc(NC(=O)CNC(=O)c4ccncc4)c3)c3ccccc23)cc1 [Example 17, N-(2-(4-(4-(3-(3-tert-Butyl-1-p-tolyl-1H-pyrazol-5-yl)ureido)naphthalen-1-yloxy)pyridin-2-ylamino)-2-oxoethyl)isonicotinamide]",–,–,− (<=30%),+ (>30%),< 10,–,–,–,–,< 10,< 10,< 10,< 10
"Cc1ccc(-n2nc(C(C)(C)C)cc2NC(=O)Nc2ccc(Oc3ccnc(NC(=O)CNC(=O)CCN4CCOCC4)c3)c3ccccc23)cc1 [Example 19, N-(2-(4-(4-(3-(3-tert-Butyl-1-p-tolyl-1H-pyrazol-5-yl)ureido)naphthalen-1-yloxy)pyridin-2-ylamino)-2-oxoethyl)-3-morpholinopropanamide]",< 10,< 10,− (<=30%),+ (>30%),< 10,< 10,< 10,–,–,–,–,–,–
"Cc1ccc(-n2nc(C(C)(C)C)cc2NC(=O)Nc2ccc(Oc3ccnc(NC(=O)CNC(=O)N4CCOCC4)c3)c3ccccc23)cc1 [Example 20, N-(2-(4-(4-(3-(3-tert-Butyl-1-p-tolyl-1H-pyrazol-5-yl)ureido)naphthalen-1-yloxy)pyridin-2-ylamino)-2-oxoethyl)morpholine-4-carboxamide]",< 10,< 5000,− (<=30%),− (<=30%),< 10,< 10,< 5000,–,–,–,–,–,–
"COCC(=O)Nc1cc(Oc2ccc(NC(=O)Nc3cc(C(C)(C)C)nn3-c3ccc(C)cc3)cc2)ccn1 [Example 22, N-(4-(4-(3-(3-tert-Butyl-1-p-tolyl-1H-pyrazol-5-yl)ureido)phenoxy)pyridin-2-yl)-2-methoxyacetamide]",< 10,< 10,− (<=30%),+ (>30%),< 5000,< 10,< 5000,–,–,–,–,–,–
"COCC(=O)Nc1cc(Oc2ccc(NC(=O)Nc3cc(C(C)(C)C)nn3-c3ccc(C)cc3)cc2C)ccn1 [Example 23, N-(4-(4-(3-(3-tert-Butyl-1-p-tolyl-1H-pyrazol-5-yl)ureido)-2-methylphenoxy)pyridin-2-yl)-2-methoxyacetamide]",< 10,< 10,− (<=30%),− (<=30%),< 5000,< 10,< 5000,–,–,–,–,–,–
